Columns and labels:
[1] = test system: neuraminidase (NA) of influenza A (H1N1)pdm09 viruses; type: biochemical, influenza A (H1N1)pdm09 virus
[2] = test system: neuraminidase (NA) of variant influenza A (H3N2)v viruses; type: biochemical, influenza A (H3N2)v virus
[3] = test system: neuraminidase (NA) of influenza B viruses; type: biochemical, influenza B virus

| Structure (SMILES) | Fold change in IC50 of test viruses, Approach #1 [1] | Fold change in IC50 of test viruses, Approach #2 [1] | Fold change in IC50 of test viruses, Approach #3 [1] | fold change in IC50 of outliers [1] | fold change in IC50 of outliers [2] | Fold change in IC50 of test viruses, Approach #2 [3] |
| --- | --- | --- | --- | --- | --- | --- |
| CCOC(=O)C1=C[C@@H](OC(CC)CC)[C@H](NC(C)=O)[C@@H](N)C1 [Oseltamivir, Oseltamivir (carboxylate)] | 319–1474 (8) fold | 182–1403 (8) fold | 213–1637 (8) fold | 38-27-294·72 (213–1637) fold | 5·30 (35) fold | 5–8 (2) fold |
| CC(=O)N[C@H]1[C@H]([C@H](O)[C@H](O)CO)OC(C(=O)O)=C[C@@H]1N=C(N)N [Zanamivir, zanamivir] |  |  |  |  | 35·74 (70) fold | 7 (1) fold |

— PMC4186475 (Influenza and Other Respiratory Viruses, 2013)
